{"source": "patent US20120225119A1", "about": "“THERAPEUTIC COMBINATION FOR PAINFUL MEDICAL CONDITIONS” (UCB Pharma GmbH, priority 2005, published 2012)", "key": {"[1]": {"tested_on": "muscle pressure hyperalgesia induced by TNF", "assay": "Withdrawal threshold to muscle pressure (Randall-Selitto) after TNF injection into gastrocnemius muscle", "assay_type": "in vivo, rat", "details": "for full reversal of the muscle hyperalgesia: pregabalin 30 and 100 mg/kg", "description": "(§1) Adult male Sprague Dawley rats with a body weight of 250 g to 300 g were used (supplier: Charles River, Sulzfeld, Germany). Animals were group-housed (3 animals per cage) and maintained in a room with controlled temperature (21-22° C.) and a reversed light-dark cycle (12 h/12 h) with food and water available ad libitum. All experiments were approved by the Bavarian State animal experimentation committee and carried out in accordance with its regulations.\n(§2) Recombinant rat tumor necrosis factor alpha (herein referred to as TNF) was obtained from R&D Systems, Minneapolis, Minn., U.S.A. TNF was diluted in 0.9% NaCl and used in a concentration of 1 μg in 50 μl. Injections were performed in short halothane narcosis with a 30 g needle bilaterally into the gastrocnemius or into the biceps brachii muscle. All rats were used to the behavioral tests before injections and baseline values were recorded over three test days.\nMechanical withdrawal thresholds to muscle pressure were measured with an analgesimeter (Ugo Basile, Comerio, Italy). The rat was allowed to crawl into a sock which helps the rat to relax. The hind limbs were positioned such that an increasing pressure could be applied onto the gastrocnemius muscle (maximum 250 g). The pressure needed to elicit withdrawal was recorded. Means of 3 trials for each hind limb were calculated (interstimulus interval of >30 sec). Only animals with a significant TNF effect were included for further analysis.\nRats were injected with TNF into the gastrocnemius muscle at 2 pm. Eighteen hours later, rats were tested for pressure hyperalgesia pre- and post-administration of the test drug. Rats were tested for pressure hyperalgesia 30 to 60 minutes after drug administration.\n(§3) The rats, initially 10 per group, were treated with either 3, 10 or 30 mg/kg lacosamide, 2 mg/kg metamizol, 30 or 100 mg/kg pregabalin, 100 mg/kg gabapentin, or the NaCl vehicle, i.p. (intraperitoneally). Volume of i.p. injections was 0.5 ml. A pilot study was performed to confirm that i.m. (intramuscular) injection of 1 μg TNF into the gastrocnemius muscle was sufficient to induce pressure hyperalgesia.\n(§4) Data are shown in graphs displaying means and standard errors of the means (SEM). Pre- and post-treatment data were compared using ANOVA (analysis of variance) and a Tukey post hoc test. Means of treatment groups were compared using a one-way ANOVA and Dunnett's post hoc test. Maximal possible effects (MPE) were calculated for all types of treatment."}, "[2]": {"tested_on": "TNF-induced reduction of grip strength", "assay": "Biceps muscle grip strength after TNF-induced muscle pain", "assay_type": "in vivo, rat", "description": "as §1, §2\nGrip strength of the forelimbs was tested with a digital grip force meter (DFIS series, Chatillon, Greensboro, N.C., U.S.A.). The rat was positioned to grab the grid with the forelimbs and was gently pulled so that the grip strength could be recorded. Means of three trials were calculated. The effect of the TNF treatment was calculated for each animal separately and only animals with a significant TNF effect were included for further analysis.\nRats were injected with TNF into the biceps brachii muscle at 8 am. Six hours later, grip strength of the forelimbs was tested with a digital grip force meter. Test drug was administered, and grip strength was again tested after 30 to 60 minutes.\nas §3, §4"}, "[3]": {"tested_on": "monosodium iodoacetate-induced tactile allodynia", "assay": "Tactile allodynia (von Frey filaments) in iodoacetate rat model of osteoarthritis", "assay_type": "in vivo", "details": "day 3 and day 7"}, "[4]": {"tested_on": "monosodium iodoacetate-induced mechanical hyperalgesia", "assay": "Mechanical hyperalgesia (Randall-Selitto paw pressure) in iodoacetate rat model of osteoarthritis", "assay_type": "in vivo", "details": "for paw pressure withdrawal threshold compared to iodoacetate/vehicle treated animals: day 3"}, "[5]": {"tested_on": "formalin-induced flinching and licking of the affected paw", "assay": "Rat formalin paw test (late phase)", "assay_type": "in vivo", "details": "for effect on time spent licking: lacosamide 10 mg/kg i.p.", "description": "Rats were given an intraplantar injection of 5% formalin (50 μl) into the posterior left paw. This treatment induces a recognizable flinching and licking response of the affected paw in control animals. The number of flinches was counted for 15 minutes, beginning 20 minutes after injection of formalin. The time spent licking the affected paw was also recorded.\nMale Rj: Wistar (Han) rats, 10 per group, weighing 100-130 g at the beginning of the experiments were studied per group. The test was performed blind. […]\nLacosamide (10 and 20 mg/kg), memantine (4 and 8 mg/kg), combinations of lacosamide (10 and 20 mg/kg) with memantine (4 and 8 mg/kg), and vehicle were administered i.p. 10 minutes before injection of formalin.\nLacosamide (10 and 20 mg/kg), naproxen (8 and 16 mg/kg), combinations of lacosamide (10 and 20 mg/kg) with […] (8 and 16 mg/kg), and vehicle were administered i.p. 10 minutes before injection of formalin. Morphine (8 mg/kg) was included as a comparative treatment."}, "[6]": {"details": "lacosamide 10 and 30 mg/kg i.p."}, "[7]": {"details": "pregabalin 30 and 100 mg/kg i.p."}}, "note": "Entries after “also recorded” stand apart in the source; their conditions may differ."}
{"smiles": "NCC1(CC(=O)O)CCCCC1", "note": "[Gabapentin]", "values": [{"measurement": "MPE (maximal possible effect) on muscle pressure hyperalgesia, FIG. 2", "setting": "[1]; gabapentin 100 mg/kg i.p.", "result": "significantly different from vehicle"}, {"measurement": "reversal of muscular mechanical hyperalgesia (withdrawal threshold to muscle pressure)", "setting": "[1]; gabapentin 100 mg/kg i.p.", "result": "significant reversal"}, {"measurement": "full reversal of the muscle hyperalgesia", "setting": "[1]; gabapentin 100 mg/kg i.p.", "result": "Neither pregabalin nor gabapentin led to a full reversal"}, {"measurement": "MPE (maximal possible effect) on biceps muscle grip strength, FIG. 4", "setting": "[2]; 100 mg/kg i.p.", "result": "significantly different from vehicle"}, {"measurement": "reversal of TNF-induced reduction of grip strength", "setting": "[2]; 100 mg/kg i.p.", "result": "significant reversal; also recorded: improved grip strength"}]}
{"smiles": "COC[C@@H](NC(C)=O)C(=O)NCc1ccccc1", "note": "[Lacosamide, (R)-2-acetamido-N-benzyl-3-methoxypropionamide]", "values": [{"measurement": "tactile allodynia of iodoacetate-treated rats", "setting": "[3]; lacosamide 30 mg/kg p.o.", "result": "improved"}, {"measurement": "reversal of muscular mechanical hyperalgesia (withdrawal threshold to muscle pressure)", "setting": "[1]; lacosamide 30 mg/kg i.p., 30 to 60 minutes after drug", "result": "complete reversal; also recorded: full reversal"}, {"measurement": "muscle hyperalgesia induced by TNF injection in the paw pressure test", "setting": "[1]; lacosamide 3, 10 and 30 mg/kg i.p.", "result": "dose-dependently improved"}, {"measurement": "MPE (maximal possible effect) on muscle pressure hyperalgesia, FIG. 2", "setting": "[1]; [6]", "result": "significantly different from vehicle"}, {"measurement": "paw pressure withdrawal threshold compared to iodoacetate/vehicle treated animals", "setting": "[4]; lacosamide 3 mg/kg p.o.", "result": "increase in paw pressure withdrawal threshold"}, {"measurement": "mechanical hyperalgesia", "setting": "[4]; lacosamide 10 mg/kg p.o., day 14", "result": "did not show a statistically significant effect"}, {"measurement": "mechanical hyperalgesia", "setting": "[4]; lacosamide at all doses tested (3, 10 and 30 mg/kg p.o.), day 7", "result": "reduced mechanical hyperalgesia"}, {"measurement": "mechanical hyperalgesia during the post-inflammatory period", "setting": "[4]; lacosamide p.o.", "result": "inhibited mechanical hyperalgesia"}, {"measurement": "effect on time spent licking", "setting": "[5]; Example 6", "result": "no clear effects"}, {"measurement": "effect on time spent licking", "setting": "[5]; Example 7", "result": "no clear effects"}, {"measurement": "effect on number of flinches as compared with vehicle controls", "setting": "[5]; Example 7, lacosamide 10 and 20 mg/kg i.p.", "result": "did not clearly affect"}, {"measurement": "grip strength test indicative of mechanical allodynia", "setting": "[2]; lacosamide 10 mg/kg i.p.", "result": "reversed the effect of TNF"}, {"measurement": "MPE (maximal possible effect) on biceps muscle grip strength, FIG. 4", "setting": "[2]; [6]", "result": "significantly different from vehicle"}, {"measurement": "reversal of TNF-induced reduction of grip strength", "setting": "[2]; [6]", "result": "significant reversal"}]}
{"smiles": "CC12CC3CC(C)(C1)CC(N)(C3)C2", "note": "[Memantine]", "values": [{"measurement": "effect on number of flinches as compared with vehicle controls", "setting": "[5]; Example 6, memantine 4 and 8 mg/kg i.p.", "result": "did not clearly affect"}]}
{"smiles": "CN1CC[C@]23c4c5ccc(O)c4O[C@H]2[C@@H](O)C=C[C@H]3[C@H]1C5", "note": "[Morphine]", "values": [{"measurement": "tactile allodynia of iodoacetate-treated rats", "setting": "[3]; morphine 3 mg/kg s.c.", "result": "improved"}, {"measurement": "paw pressure withdrawal threshold compared to iodoacetate/vehicle treated animals", "setting": "[4]; morphine 3 mg/kg s.c.", "result": "increase in paw pressure withdrawal threshold"}, {"measurement": "mechanical hyperalgesia", "setting": "[4]; morphine 3 mg/kg s.c., day 7", "result": "reduced mechanical hyperalgesia"}, {"measurement": "effect on number of flinches and time spent licking as compared with vehicle controls", "setting": "[5]; Example 4, morphine 2 and 4 mg/kg i.p., effects did not reach statistical significance", "result": "dose-dependently decreased"}, {"measurement": "effect on flinching and time spent licking as compared with vehicle controls", "setting": "[5]; Example 7, morphine 8 mg/kg i.p.", "result": "eliminated flinching and the time spent licking"}]}
{"smiles": "COc1ccc2cc([C@H](C)C(=O)O)ccc2c1", "note": "[Naproxen]", "values": [{"measurement": "effect on number of flinches or time spent licking as compared with vehicle controls", "setting": "[5]; Example 7, naproxen 8 and 16 mg/kg i.p.", "result": "did not clearly affect"}]}
{"smiles": "O=C(O)Cc1ccccc1Nc1c(Cl)cccc1Cl", "note": "[diclofenac]", "values": [{"measurement": "paw pressure withdrawal threshold compared to iodoacetate/vehicle treated animals", "setting": "[4]; diclofenac 30 mg/kg s.c.", "result": "increase in paw pressure withdrawal threshold"}, {"measurement": "mechanical hyperalgesia", "setting": "[4]; diclofenac 30 mg/kg s.c., day 7", "result": "reduced mechanical hyperalgesia"}]}
{"smiles": "Cc1c(N(C)CS(=O)(=O)[O-])c(=O)n(-c2ccccc2)n1C.[Na+]", "note": "[metamizol]", "values": [{"measurement": "MPE (maximal possible effect) on muscle pressure hyperalgesia, FIG. 2", "setting": "[1]; metamizol 2 mg/kg i.p.", "result": "significantly different from vehicle"}, {"measurement": "reversal of muscular mechanical hyperalgesia (withdrawal threshold to muscle pressure)", "setting": "[1]; metamizol 2 mg/kg i.p.", "result": "complete reversal"}, {"measurement": "MPE (maximal possible effect) on biceps muscle grip strength, FIG. 4", "setting": "[2]; metamizol 2 mg/kg i.p.", "result": "significantly different from vehicle"}, {"measurement": "reversal of TNF-induced reduction of grip strength", "setting": "[2]; metamizol 2 mg/kg i.p.", "result": "significant reversal"}]}
{"smiles": "CC(C)C[C@H](CN)CC(=O)O", "note": "[pregabalin]", "values": [{"measurement": "MPE (maximal possible effect) on muscle pressure hyperalgesia, FIG. 2", "setting": "[1]; [7]", "result": "significantly different from vehicle"}, {"measurement": "reversal of muscular mechanical hyperalgesia (withdrawal threshold to muscle pressure)", "setting": "[1]; [7]", "result": "significant reversal"}, {"measurement": "full reversal of the muscle hyperalgesia", "setting": "[1]; gabapentin 100 mg/kg i.p.", "result": "Neither pregabalin nor gabapentin led to a full reversal"}, {"measurement": "MPE (maximal possible effect) on biceps muscle grip strength, FIG. 4", "setting": "[2]; 100 mg/kg i.p.", "result": "significantly different from vehicle"}, {"measurement": "reversal of TNF-induced reduction of grip strength", "setting": "[2]; 100 mg/kg i.p.", "result": "significant reversal; also recorded: improved grip strength"}]}
